One data set has as its system THP1 cells. In words: Immunoblotting of phosphorylated IRF3/TBK1 and nuclear IRF3. It is filed as cell-based, human. How it is done:
Total cell lysates were prepared in RIPA lysis buffer (Beyotime Biotechnology) supplemented with 1 mM PMSF and 1× protease inhibitor cocktail (Yeasen), and nuclear protein was extracted by nuclear protein extraction kit (Solarbio) in accordance with the manufacturer’s instructions. The samples were separated by SDS-PAGE and transferred to the PVDF membrane (Millipore). The membranes were incubated with the indicated primary antibodies at 4 °C overnight and then incubated with an HRP-conjugated anti-rabbit IgG antibody (Cell Signaling, Cat# 7074, 1:5000) or anti-mouse IgG antibody (Cell Signaling, Cat# 7076, 1:5000) at room temperature for 1 h. The signal was visualized by using the NcmECL Ultra kit (New Cell & Molecular Biotech) and then was exposed by using MiniChemi (SageCreation).
Background: A western blot detects proteins with antibodies after separation by electrophoresis.

For data set [1], the system named is THP1-Lucia ISG cells infected by HSV-1. In words: Luciferase reporter assay, HSV-1 infection. It is filed as cell-based, human. The note with it: for luciferase activity, Fig. 5c: XQ2 10 μM. How it is done:
THP1-Lucia ISG cells (Invivogen) were seeded into a 96-well plate and incubated with RU.521 (Invivogen) or XQ2 for the indicated time, and then transfected with dsDNA by lipofectamine 2000 (Invitrogen) or infected by HSV-1 with the indicated titer for 24 h. The supernatant was collected and 50 μL QUANTI-Luc Luciferase reagent (Invivogen) was added to 20 μL supernatants per well, and luciferase luminescence was detected by a microplate reader (BioTek Synergy H1) immediately.

The test system of data set [2] is HSV-1-infected THP1 cells. As to the kind of experiment: HSV-1 cytopathogenic effect, CCK-8 viability. The note with it: for cell viability, CCK-8, Fig. 5e: XQ2 10 μM. It is filed as cell-based, human. On the technique in general: Protection from cytopathic effect is a common read-out in antiviral testing.
Experimental: Cell viability was measured by cell counting kit-8 (TargetMol) according to the manufacturer’s instructions.
The target of data set [3] is T1, truncated cGAS (hcGAS-ΔN, residues 147–522) (Homo sapiens, UniProt Q8N884).
T1 construct: N-terminally truncated human cGAS (hcGAS-ΔN, residues 147–522); 6xHis-SUMO (N, cleaved yes); made in house; host or cells: Escherichia coli BL21 (DE3)
T1 sequence (Q8N884 147-522, stated change not applied): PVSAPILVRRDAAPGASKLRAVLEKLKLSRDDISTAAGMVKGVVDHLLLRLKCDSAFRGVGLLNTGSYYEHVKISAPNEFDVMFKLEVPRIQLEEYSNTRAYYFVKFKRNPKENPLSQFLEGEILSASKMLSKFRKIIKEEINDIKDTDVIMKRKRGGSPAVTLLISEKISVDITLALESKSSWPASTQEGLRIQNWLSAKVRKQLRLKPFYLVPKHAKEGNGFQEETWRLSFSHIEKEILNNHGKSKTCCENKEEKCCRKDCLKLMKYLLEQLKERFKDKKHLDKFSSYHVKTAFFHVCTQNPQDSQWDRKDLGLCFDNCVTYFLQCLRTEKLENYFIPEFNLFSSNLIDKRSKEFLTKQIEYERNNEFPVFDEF
As to the kind of experiment: Surface plasmon resonance (SPR). It is filed as binding. How it is done: (§1) All SPR binding studies were performed with a Biacore 8 K instrument (GE Healthcare Life Sciences). hcGAS-FL / hcGAS-ΔN (1 mg mL^−1) was immobilized in a CM5 chip by EDC/NHS method. The tested peptide was diluted with running buffer (20 mM HEPES, pH 7.5, 125 mM KCl,10 mM MgCl2). All the samples contained the same concentration of DMSO (0.5%). The tested peptide was injected at a flow rate of 30 μL min^−1 for 200 s of association, followed by 200 s of disassociation at 25 °C. The final graphs were obtained by subtracting blank sensorgrams. The data were analyzed with Biacore Insight Evaluation software.
Background: Surface plasmon resonance follows binding to a sensor surface in real time, without labels.

In data set [4] the target is T2, full-length human cGAS (hcGAS-FL) (Homo sapiens, UniProt Q8N884).
T2 construct: The gene encoding full-length human cGAS (hcGAS-FL); 6xHis-SUMO (N, cleaved yes); made in house; host or cells: Escherichia coli BL21 (DE3)
T2 sequence (Q8N884 whole entry): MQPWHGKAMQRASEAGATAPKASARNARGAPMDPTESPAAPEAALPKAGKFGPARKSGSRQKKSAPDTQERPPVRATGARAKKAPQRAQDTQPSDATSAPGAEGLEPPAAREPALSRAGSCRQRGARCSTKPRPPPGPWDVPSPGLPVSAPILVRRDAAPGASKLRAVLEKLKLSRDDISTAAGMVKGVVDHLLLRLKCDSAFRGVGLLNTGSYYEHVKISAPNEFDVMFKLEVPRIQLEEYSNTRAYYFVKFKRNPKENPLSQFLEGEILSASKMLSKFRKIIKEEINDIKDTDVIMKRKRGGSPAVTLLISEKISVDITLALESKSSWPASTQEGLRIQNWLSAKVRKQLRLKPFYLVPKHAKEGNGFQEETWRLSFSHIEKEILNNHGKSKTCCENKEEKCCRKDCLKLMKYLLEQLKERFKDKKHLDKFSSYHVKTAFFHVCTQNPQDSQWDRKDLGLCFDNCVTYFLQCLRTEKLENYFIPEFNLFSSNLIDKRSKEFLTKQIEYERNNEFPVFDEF
As to the kind of experiment: Surface plasmon resonance (SPR). It is filed as binding. Here is the method: as §1

The next data set in a line: in vivo. The note with it: C57BL/6, mouse, iv, 10 mg/kg.
The subject of data set [5] is THP1 cells stimulated with SATE-cddA, 2’3’-cGAMP or ADU-S100 (STING agonists). In words: qPCR of IFNB1 mRNA in THP1 cells stimulated by STING agonists. It is filed as cell-based, human. The arrangement: key to IFNB1 mRNA level (Fig. S7c): relative mRNA level, target CT normalized to GAPDH CT. How it is done:
The indicated cells were stimulated with either ISD (Sangon Biotech), HSV-1 (Provided by Dr. Zhengfan Jiang), HSV60mer (Sangon Biotech), SATE-cddA[70], 2’3’-cGAMP (Invivogen, Cat# tlrl-nacga23-1), ADU-S100 (MedChemExpress, Cat# HY-12885A) or Poly(I:C) (Invivogen, Cat# tlrl-pic) after XQ2 or XQ2B treatment. Total RNA was isolated from indicated cells that incubated with the drugs for indicated time or mice tissues by using NucleoZOL reagent (MACHEREY-NAGEL) according to the manufacturer’s instructions. The quantifications of mRNA levels were carried out by real-time PCR using a PerfectStart® Uni RT&qPCR Kit (TransGen Biotech) on the QuantStudio 5 qPCR machine (Applied Biosystems). Samples were carried out in triplicate and the target CT values were normalized to GAPDH CT values. Primers of qPCR used in this study can be found in Supplementary Table S2.
IFNB1 mRNA relative level […]
Supplementary Fig. 7. XQ2B inhibits the activity of cGAS in vitro. […]
(e) THP1 cells were pretreated
Data are representative of
Source data are provided as a Source Data file.

In general, Kd refers to the concentration at which binding is half-saturated. What is called half-life is the time needed for the level to fall by half in the phase considered.

Where “and” joins values, the source holds several entries; their conditions need not be identical. Equal entries are not always repeated. Square brackets hold non-standard residues; d marks the D form. Peptide text beside a SMILES is read from it.

Experimental for in vivo: Whole blood samples were collected in EDTA-K2 surface-coated tubes at 0.083, 0.25, 0.5, 1, 2, 5, 7, 24 h post administration. The results were analyzed by LC-MS.

Turning to `CC(C)C[C@@H]1NC(=O)[C@H](CCCNC(=N)N)NC(=O)[C@H](C(C)C)NC(=O)[C@@H]2CCCN2C(=O)[C@@H](Cc2ccccc2)NC(=O)[C@H](CC(C)C)NC(=O)[C@H](CCCNC(=N)N)NC(=O)[C@H](C(C)C)NC(=O)[C@H](C)NC(=O)[C@@H](Cc2ccccc2)NC1=O` [XQ2, Cyclo (LfAVRLfPVR)] (cyclo(L[dF]AVRL[dF]PVR)), the “nuclear translocation of IRF-3, fractionation immunoblot” value in the data set with THP1 cells (ISD or HSV-1, 10 μM) is “substantially suppressed the nuclear translocation of IRF-3 induced by ISD and HSV-1”. In addition, the “phosphorylation of TBK-1 and IRF-3” value in the data set on THP1 cells (ISD/dsDNA 6 h) is “markedly decreased phosphorylation of TBK-1 and IRF-3 induced by ISD”. For the same molecule, the “HSV-1-induced luciferase reporter signal” value in data set [1] (10 μM) was “further confirmed in the reporter cell line THP1 Lucia ISG”. The “luciferase activity, Fig. 5c” value in data set [1] (Ctl) was 1.148 and 1.262 and 1.5089; in data set [1] (HSV-1 1×10^4 pfu 24 h), 3.199 and 3.457 and 4.259; in data set [1] (HSV-1 2×10^4 pfu 24 h) it was 5.808 and 6.219 and 6.721; in data set [1] (HSV-1 5×10^4 pfu 24 h), 11.1309 and 12.5837 and 12.8036. The “HSV-1 cytopathogenic effect in THP1 cells” value in data set [2] (10 μM) is recorded as “HSV-1 produced marked cytopathogenic effect (CPE) in THP1 cells in the presence of XQ2”. Further, the “cell viability, CCK-8, Fig. 5e” value in data set [2] (Ctl) is 102.857 and 110.714 and 112.321; in data set [2] (HSV-1 1×10^4 pfu), 101.071 and 114.286 and 103.571; in data set [2] (HSV-1 1×10^5 pfu) it was 37.5 and 43.3929 and 38.0357; in data set [2] (HSV-1 2×10^4 pfu), 57.3214 and 52.5 and 50.7143; in data set [2] (HSV-1 5×10^4 pfu), 52.8571 and 47.6786 and 46.7857. For the same molecule, the “Response (RU), SPR, Fig. S4b” value in data set [3] (XQ2 2.5 μM) was found to be 32.0968 RU; in data set [3] (XQ2 5 μM), 115.953 RU; in data set [3] (XQ2 10 μM), 275.186 RU. In addition, the Kd in data set [3] (hcGAS-ΔN, Fig. S4b) was 86.5 ± 76.2 µM; in data set [4] (hcGAS-FL, one-to-one binding model, ± 95% CI) it was 35.9 µM and ~35 µM. For the same molecule, the “Response (RU), SPR, Fig. 3a” value in data set [4] (XQ2 2.5 μM) came out at 57.4165 RU; in data set [4] (XQ2 5 μM) it was 140.669 RU; in data set [4] (XQ2 10 μM) it was 252.736 RU.
Turning to `CC(C)C[C@@H]1NC(=O)[C@H](CCCNC(=N)N)NC(=O)[C@H](C(C)C)NC(=O)[C@@H]2CCCN2C(=O)[C@@H](Cc2ccccc2)NC(=O)[C@H](CC(C)C)NC(=O)[C@H](CCCNC(=N)N)NC(=O)[C@H]([C@@H](C)O)NC(=O)[C@H](C)NC(=O)[C@@H](Cc2ccccc2)NC1=O` [XQ2B] (cyclo([dF]ATRL[dF]PVRL)), the half-life in the data set “in vivo” is 1.1 h. For the same molecule, in the data set “in vivo” (Conc (ng/ml), Fig. S11a), the level at 0.083 h was 101 µg/mL, the level at 0.25 h came out at 63.6 µg/mL and the level at 0.5 h worked out at 50.4 µg/mL. Further, the “IFNB1 mRNA level (Fig. S7c)” value in data set [5] (2'3'-cGAMP, XQ2B) was 4003.21 and 3809.06 and 3708.08. The “IFNB1 mRNA level (Fig. S7c)” value in data set [5] (SATE-cddA, XQ2B) was 747.639 and 650.174 and 712.905. The “signaling induced by STING agonists” value in data set [5] (THP1, 10 μM) is “no significant effect on signaling induced by STING agonists”. The “IFNB1 mRNA level (Fig. S7c)” value in data set [5] (c-di-AM(PS)2, XQ2B) was 9.033 and 9.206 and 10.1658.
